Test results published in patent US6660742B2, “Compositions and methods of the use thereof achiral analogues of CC-1065 and the duocarmycins” (priority 2000, dated 2003).

System: supercoil pBR322 DNA
Test: pBR322 strand nicking assay
Assay type: biochemical
Excerpt: When a compound is covalently bound to a purine-N3 in the minor groove of DNA, the adduct is thermally unstable. It is readily hydrolyzed to produce a DNA strand (2). Consequently, the formation of adenine-N3 (or guanine-N3) alkylation adducts can be detected by thermal conversion of supercoil pBR322 DNA (Form I) to nicked open […] DNA (Form II) as a result of the formation of single strand breaks. These two different forms of pBR322 DNA can then be separated by agarose gel electrophoresis, and the relative amounts of each form can be determined by densitometry of methylene blue stained gels (39). The supercoil form of pBR322 DNA is more compact than the open circular form, and as a result, moves further down the gel towards the positive electrode.
Solutions of the drugs dissolved in N,N-dimethylacetamide (DMA) were made at 0.10 mM concentrations, and were always stored in the refrigerator.
Tris buffer solution at pH 7.4 at 25° C. and 0.010 M was made from Tris HCl (0.661 g), Tris base (0.097 g) diluted to a 100 mL volume with distilled water. Then EDTA-Na2—2H2O (0.186 g) and KCl (3.72 g) were added to the Tris HCl solution and diluted to 500 mL volume with distilled water. A TBE solution was prepared from Carolina Lot #4020602 Electrophoresis buffer 20 times TBE diluted to a volume of three liters with deionized water. The agarose gel was prepared from agarose low EEO (0.32 g) dissolved in TBE buffer (40 mL) and heated in a microwave oven until dissolved.
The pBR322 DNA (100 μg/100 μL) from Pharmacia Biotech was in a buffer (10 mM Tris-HCl pH 7.5, and 1 mM EDTA). The DNA was prepared from plasmid DNA isolated from E. coli HB101 by the alkaline lysate procedure and was purified by Sepharcryl S-100 chromatography followed by CsCl-ethidium bromide centrifugation.
The alkylation samples were prepared by adding DNA (10 μL), Tris-EDTA KCl buffer (18 μL), and compound (2 μL) at 100 μM concentration to Eppendorf tubes. The samples were incubated at 40° C. for 40 h. The samples were removed then centrifuged for one minute. 10% SDS (sodium dodecylsulfate) (2 μL), 50% glycerol (5 μL), and bromophenol blue (2 μL) were added to the samples. The contents of the tubes were mixed with a Vortex mixer then centrifuged to consolidate the samples. The agarose gel was covered with TBE-buffer in the chamber. The samples were loaded onto the agarose gel and run at 40 V for three hours, or when the band were about three/fourths of the way down the gel.
The gel was removed and stained with methylene blue (45 min). At this time, the stained gel was placed in a water chamber overnight. The intensities of each band i.e. Form I and II were determined using densitometry.

SMILES: O=C(Nc1cc(O)ccc1CCCl)c1cc2cc(NC(=O)c3cc4ccccc4o3)ccc2[nH]1 [Compound 1, 4-(2-Chloroethyl)-3-[5-(5-benzofuran-2-carboxamido)indole-2-carboxamido]phenol]
- Form I DNA (%): 73 ± 2%
- Form II DNA (%): 27 ± 4%
